Read-outs that look alike come from different tables or passages of the source.
Columns and labels:
[1] = test system: A-427 lung carcinoma cells [heterozygous G12D]; assay: Cancer cell line proliferation (CellTiter-Glo), A-427; type: cell-based; conditions: A-427 cells, 72 hr treatment, read-out: A427 CTG (EC50)
How it was run: (§1)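 Cells at 4,000/well grown 72 hr, then treated with 3-fold serial dilutions (20 μM to 1.02 nM, 0.5% DMSO final) for 72 hr at 37° C/5% CO2. Viability by CellTiter-Glo luminescence; EC50 values calculated.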

[2] = test system: AGS gastric carcinoma cells [heterozygous G12D]; assay: Cancer cell line proliferation (CellTiter-Glo), AGS; type: cell-based; conditions: 72 hr treatment, read-out: AGS CTG (EC50)
How it was run: as §1

[3] = test system: ASPC1 pancreatic adenocarcinoma cells [homozygous G12D]; assay: Cancer cell line proliferation (CellTiter-Glo), ASPC1; type: cell-based; conditions: 72 hr treatment, read-out: ASPC-1 CTG (EC50)
How it was run: as §1

[4] = test system: SW1990 pancreatic adenocarcinoma cells [homozygous G12D]; assay: Cancer cell line proliferation (CellTiter-Glo), SW1990; type: cell-based; conditions: Homo sapiens, 72 hr treatment, read-out: SW1990 CTG (EC50)
How it was run: as §1

KRAS(G12D)/SOS1 = target: T1, KRAS(G12D)/SOS1 (Homo sapiens, UniProt P01116, G12D); assay: KRAS(G12D)/SOS1 homogeneous time-resolved fluorescence (HTRF) assay; type: binding; conditions: absence of GTP; 4° C., 3 hr
T1 construct: purchased Cisbio 63ADK000CB17PEH
How it was run: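 HTRF kit assay of compound-blocked KRAS(G12D)–SOS1 interaction, run without GTP. Compounds were tested as 3-fold dilutions from 20 µM to 1.02 nM and incubated with the reaction components for 3 hr at 4 °C, sealed. IC50 was taken as the concentration giving 50% of maximal inhibition.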

T1 sequence (P01116 1-188 isoform P01116-2 G12D): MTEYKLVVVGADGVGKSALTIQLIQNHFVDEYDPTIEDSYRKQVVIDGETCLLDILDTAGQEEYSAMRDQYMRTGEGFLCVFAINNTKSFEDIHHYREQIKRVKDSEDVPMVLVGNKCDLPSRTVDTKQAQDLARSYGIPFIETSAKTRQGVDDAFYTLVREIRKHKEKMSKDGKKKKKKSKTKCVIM

C#Cc1cccc2cc(O)cc(-c3ncc4c(N5CC6CCC(C5)N6)nc(OCC5(CN6CCN(C(=O)C7CCN(Cc8ccc9c(c8)CN(C(=O)c8cc(C(C)C)c(O)cc8O)C9)CC7)CC6)CC5)nc4c3F)c12 [Compound 157]
100 to 1000 nM: EC50 ([1]; Homo sapiens) | EC50 ([3]; Homo sapiens, ASPC1, 72 h) | EC50 [4]
< 100 nM: EC50 ([2]; Homo sapiens) | IC50 (KRAS(G12D)/SOS1)

C#Cc1c(F)ccc2cc(O)cc(-c3nc(OC)c4c(N5CC6CCC(C5)N6)nc(OCC5(CN6CCN(CC7CCN(Cc8ccc(-n9c(C(=O)NC(C)C(F)(F)F)nnc9-c9cc(C(C)C)c(O)cc9O)cc8)CC7)CC6)CC5)nc4c3F)c12 (centres unmarked) [Compound 158]
< 100 nM: EC50 ([1]; Homo sapiens) | EC50 ([2]; Homo sapiens) | EC50 ([3]; Homo sapiens, ASPC1, 72 h) | EC50 [4] | IC50 (KRAS(G12D)/SOS1)

CC(C)c1cc(C(=O)N2Cc3ccc(CN4CCC(CN5CCN(CC6(COc7nc(N8CC9CCC(C8)N9)c8cnc(-c9cc(O)cc%10ccccc9%10)c(F)c8n7)CC6)CC5)CC4)cc3C2)c(O)cc1O [Compound 159]
< 100 nM: IC50 (KRAS(G12D)/SOS1)
100 to 1000 nM: EC50 ([1]; Homo sapiens) | EC50 ([2]; Homo sapiens) | EC50 ([3]; Homo sapiens, ASPC1, 72 h) | EC50 [4]

C#Cc1c(F)ccc2cc(O)cc(-c3ncc4c(N5CC6CCC(C5)N6)nc(CCC5(CN6CCN(C7CCN(Cc8ccc9c(c8)CN(C(=O)c8cc(C(C)C)c(O)cc8O)C9)CC7)CC6)CC5)nc4c3F)c12 [Compound 161]
100 to 1000 nM: EC50 ([1]; Homo sapiens) | EC50 ([3]; Homo sapiens, ASPC1, 72 h)
< 100 nM: EC50 ([2]; Homo sapiens) | EC50 [4] | IC50 (KRAS(G12D)/SOS1)

C#Cc1c(F)ccc2cc(O)cc(-c3ncc4c(N5CC6CCC(C5)N6)nc(OCC5(CN6CCC(C7CCN(Cc8ccc(-n9c(C(=O)NC(C)C(F)(F)F)nnc9-c9cc(C(C)C)c(O)cc9O)cc8)CC7)CC6)CC5)nc4c3F)c12 (centres unmarked) [Compound 162]
< 100 nM: EC50 ([1]; Homo sapiens) | EC50 ([2]; Homo sapiens) | EC50 ([3]; Homo sapiens, ASPC1, 72 h) | EC50 [4] | IC50 (KRAS(G12D)/SOS1)

C#Cc1c(F)ccc2cc(O)cc(-c3ncc4c(N5CC6CCC(C5)N6)nc(OCC5(CN6CCC(C7CCN(Cc8ccc9c(c8)CN(C(=O)c8cc(C(C)C)c(O)cc8O)C9)CC7)CC6)CC5)nc4c3F)c12 [Compound 163]
100 to 1000 nM: EC50 ([1]; Homo sapiens) | EC50 ([3]; Homo sapiens, ASPC1, 72 h)
< 100 nM: EC50 ([2]; Homo sapiens) | EC50 [4] | IC50 (KRAS(G12D)/SOS1)

Cc1cccc2cccc(-c3ncc4c(N5CC6CCC(C5)N6)nc(OC[C@@H]5C[C@H](N6CCN(Cc7ccc8c(c7)CN(C(=O)c7cc(C(C)C)c(O)cc7O)C8)CC6)CN5C)nc4c3F)c12 [Example 1]
100 to 1000 nM: EC50 [1] | EC50 [2] | EC50 [3] | EC50 [4] | IC50 (KRAS(G12D)/SOS1)

From US20260070929A1, “METHODS AND COMPOSITIONS FOR MODULATING KRAS(G12D)” (Ranok Therapeutics (Hangzhou) Co. LTD., priority 2022, published 2026)
